Assay [1] deals with C. elegans. As to the kind of experiment: Effects of 5-HT receptor class-selective agonists and antagonists on C. elegans pharyngeal pumping and locomotion on agar. The class given is in vivo. The method, then:
For the experiments described below C. elegans of the Bristol N2 strain (Brenner, S. 1974. The genetics of Caenorhabditis elegans, Genetics, 77: 71-94) were cultured at room temperature on HMS174 E. coli bacteria (Campbell J. L. et al. 1978. Genetic recombination and complementation between bacteriophage T7 and cloned fragments of T77 DNA. Proc. Natl. Acad. Sci. USA. 75: 2276-2280) on NGM agar (Sulston, J. and Hodgkin, J. 1988, “Methods” in The nematode Caenorhabditis elegans. W. B. Wood pp 587-606. Cold Spring Harbor Laboratory Press, New York) unless otherwise described.
Studies were therefore conducted wherein selective 5-HT1, 5-HT2 and 5-HT3 agonists were applied at known concentrations to agar on which C. elegans was held in the absence of food and the effects on movement and pharyngeal pumping monitored over a period of 2-3 hours.
Studies were also conducted to investigate the ability of selective vertebrate 5-HT3 antagonists to inhibit the 5-HT-induced increase in pharyngeal pumping.

For another assay, the system named is Helicoverpa armigera. Kind of assay: Growth of neonate H. armigera on surface-contaminated artificial diet. It counts as in vivo. Particulars: for Mean weight of larva (mg) at 7 days: 24 larvae; for activity at 100 µM / activity at 1000 µM: Helicoverpa armigera, 168 h, read-out: % of control weight.
Assay [2] concerns C. elegans. Kind of assay: Chronic exposure protocol: nematode growth and survival on NGM agar containing the compound. As to conditions: for mortality at 5 µM / mortality at 10 µM / mortality at 20 µM / mortality at 40 µM / mortality at 81 µM / mortality at 162 µM / mortality at 325 µM: Caenorhabditis elegans. It counts as in vivo. The method, then:
Because the pharyngeal pump is essential for nematode feeding and the maintenance of the nematode “hydrostatic skeleton” [Brownlee, D. J. A. et al. 1997, supra] and a previously established target organ for nematicides, an investigation was conducted to assess whether the 5-HT3-selective antagonists would function as nematicidal agents in a chronic exposure protocol.
C. elegans nematodes were cultured on the HMS/174 strain of E. coli [Campbell, J. L. et al. 1978. Genetic recombination and complementation between bacteriophage T7 and cloned fragments of T7 DNA. Proc. Natl. Acad. Sci. USA. 75: 2276-2280] on NGM agar [Sulston, J. and Hodgkin, J. 1988, supra] in the wells of six well tissue culture cluster, 2 ml agar per well. MDL72222 was incorporated into the agar at the specified concentrations using ≦65 μl of acetone as a carrier. A control well contained 65 μl of acetone only. Between five and 11 L1 stage C. elegans were transferred to each well and the wells were incubated at 22° C. for up to four weeks. All concentrations >10 μM MDL 72222 caused developmental delays. Concentrations of MDL 72222 down to 80 μM caused 40 % mortality within three days. […] The bacterial food therefore remained uneaten for prolonged periods.
Concentrations of MDL72222 down to 20 μM caused 90-100% mortality within 21 days and concentrations as low as 10 μM and 5 μM caused 50-100% mortality at 21 days. At the lowest concentrations of MDL72222, nematode death was delayed until after the bacterial food had been consumed. […] The experiment shown in Table 3 was repeated with essentially identical results.

In a further assay the test system is Myzus persicae. Kind of assay: Green Peach Aphid artificial diet sachet bioassay, growth and survival. It counts as in vivo. As to conditions: for Mean number of surviving aphids (out of 5) / Mean relative growth rate of survivors: after 5 days. How it is done:
The effects of MDL 72222 on Green Peach Aphid (Myzus persicae) was also tested. The bioassay involved testing compounds at 3 different concentrations (1 mM, 100 μM, 10 μM) in an artificial diet. Compounds that were not water-soluble were forced into solution using a non-toxic surfactant. For each compound, each concentration was tested in 10 replicate assays. In each replicate, 5 aphids were allowed to feed on the test solution in a Parafilm® sachet for a period of 5 days. Survivorship and aphid growth rate were compared among the test concentrations and a control containing only the artificial diet with surfactant.

For assay [3], the system named is C. elegans. As to the kind of experiment: Dose-response of serotonin-stimulated pharyngeal pumping of C. elegans. Particulars: for IC50: in the presence of 0.325 mM serotonin (FIG. 2), read-out: IC50, inhibition of serotonin-stimulated pharyngeal pumping. The class given is in vivo. The method, then: FIG. 1 provides dose-response curves for serotonin action on pharyngeal pumping. […] Any minor differences between the curves of FIGS. 1a and 1b are accounted for by the differences in experimental detail and the fact that in the microscopical assay, the rate of pumping is counted over a period of 1-3 minutes, whilst in the plate-based assays the fluorescence intensity represents the accumulation of ingested material over 60 minutes.
At this concentration of 5-HT, the IC50 for MDL72222 is approximately 30 μM, i.e. 10×lower than the EC50 for 5-HT.

Assay [4] has as its system snail 5-HT3-like ion channel. As to conditions: Green et al. 1996; read-out: IC50 on the snail 5-HT3-like ion channel / 5-HT gated conductance; cited from earlier work.
Where [5] appears, read: 0.1 mM by surface contamination of diet.
Setting [6] is: 1.0 mM by surface contamination of diet.
Setting [7] is: 72 h, read-out: % Mortality - 3 days.
[8] abbreviates: 504 h, read-out: % Mortality - 21 days.
Setting [9] is: Table 3 experiment, 0.325 mM antagonist plus 0.325 mM serotonin.
[10] abbreviates: Table 3 experiment, 0.325 mM, nothing else added.
[11] abbreviates: Table 2 experiment, 0.325 mM (each), nothing else added.

Each structure is given as a SMILES string. Read-outs that look alike come from different tables or passages of the source. Where only a bound is given, the exact number is not on record here.

The mortality is the percentage killed. The EC50 is the concentration at which the effect is half-maximal.

Consider `Cl.Clc1cccc(N2CCNCC2)c1` [m-CPP hydrochloride], for which the Effect on locomotion entry in the assay with C. elegans [1] (agonist 1 mM (each, if combined)) was “Locomotion inhibited”; in the assay on C. elegans [1] (agonist 6 mM (each, if combined)), “Locomotion inhibited”. Also, the “Pumping rate (min-1) mean ± s.d.” value turned out to be 0 min⁻¹ with C. elegans [1] (agonist 1 mM (each, if combined) in agar, absence of food, 2-3 hours) and 0 min⁻¹ with C. elegans [1] (agonist 6 mM (each, if combined) in agar, absence of food, 2-3 hours).

In the case of `CN1[C@@H]2CC[C@H]1C[C@@H](OC(=O)c1cc(Cl)cc(Cl)c1)C2` [MDL 72222], the “Mean weight of larva (mg) at 7 days” value in the assay on Helicoverpa armigera (setting [5]) is 51 mg; in the assay with Helicoverpa armigera (setting [6]) it was 54 mg. Also, the activity at 100 µM in the assay with Helicoverpa armigera (0.1 mM by surface contamination of diet, 7 days) is 70%. Also, the activity at 1000 µM in the assay on Helicoverpa armigera (1.0 mM by surface contamination of diet, 7 days) turned out to be 75%. For the same compound, the “Time to consumption of all bacteria” value with C. elegans [2] (5 μM in agar) is listed as 7 days; with C. elegans [2] (10 μM in agar), 8 days; in the assay on C. elegans [2] (20 μM in agar) it was 9 days; with C. elegans [2] (40 μM in agar), 10 days; in the assay on C. elegans [2] (81 μM in agar), 16 days; in the assay with C. elegans [2] (162 μM in agar), greater than 28 days. In the assay on C. elegans [2] (325 μM in agar), the “Time to consumption of all bacteria” value is greater than 28 days. Also, the values for the mortality at 5 µM in the assay on C. elegans [2] (setting [7]) and with C. elegans [2] (setting [8]) were 0% and 100%, respectively. For the same compound, the mortality at 10 µM in the assay with C. elegans [2] (setting [7]) was 0%; with C. elegans [2] (setting [8]), greater than 50%. Moreover, the mortality at 20 µM worked out at 0% with C. elegans [2] (setting [7]) and 100% in the assay on C. elegans [2] (setting [8]). Moreover, the mortality at 40 µM was 0% in the assay with C. elegans [2] (setting [7]) and greater than 90% with C. elegans [2] (setting [8]). Also, the results for the mortality at 81 µM with C. elegans [2] (setting [7]) and with C. elegans [2] (setting [8]) were 42% and greater than 90%, respectively. For the same compound, the mortality at 162 µM was 64% with C. elegans [2] (setting [7]) and greater than 90% with C. elegans [2] (setting [8]). The values for the mortality at 325 µM in the assay with C. elegans [2] (setting [7]) and with C. elegans [2] (setting [8]) were 55% and 100%, respectively. In addition, in the assay on C. elegans [2] (L1 stage seeded, 22° C.), the “Concentrations that caused developmental delays” value was greater than 10 µM. The “Mean number of surviving aphids (out of 5)” value with Myzus persicae (0.01 mM in artificial diet) stood at 4.6; in the assay with Myzus persicae (0.1 mM in artificial diet), 3.4; with Myzus persicae (1 mM in artificial diet), 0.9. The results for the “Mean relative growth rate of survivors” value in the assay on Myzus persicae (0.01 mM in artificial diet), in the assay on Myzus persicae (0.1 mM in artificial diet) and in the assay with Myzus persicae (1 mM in artificial diet) were 0.0339, 0.0200 and 0.0383, respectively. Besides, the “Pumping rate (min-1) mean ± s.d.” value in the assay with C. elegans [1] (setting [9]) is 2 ± 2 min⁻¹; in the assay on C. elegans [1] (setting [10]) it was 1 ± 1 min⁻¹. In addition, the IC50 in the assay with C. elegans [3] (Caenorhabditis elegans) was roughly 25 µM; in the assay on C. elegans [3] it was roughly 30 µM.

In the case of `Cc1[nH]c2ccc(O)cc2c1CCN.Cl` [2-methyl-5-hydroxytryptamine hydrochloride], in the assay on C. elegans [1] (agonist 3 mM), the Effect on locomotion entry is “Locomotion normal,”. The “Pumping rate (min-1) mean ± s.d.” value in the assay on C. elegans [1] (agonist 3 mM in agar, absence of food, 2-3 hours) turned out to be 130 ± 27 min⁻¹.

On to `Cc1nccn1CC1CCc2c(c3ccccc3n2C)C1=O` (stereo not shown) [ondansetron], for which the “Effect on growth and development of neonate H. armigera” value with Helicoverpa armigera (artificial diet, surface contamination) is listed as “no discernible effect”. In assay [4], the IC50 is 10 µM. The “Effect on M. persicae” value with Myzus persicae (1 mM, 100 μM, 10 μM in artificial diet, 5 days) is recorded as “no discernible effect”. For the same compound, in the assay with C. elegans [1] (setting [9]), the Effect on locomotion entry is “Nematodes moved normally” and the “Pumping rate (min-1) mean ± s.d.” value stood at 32 ± 29 min⁻¹. Besides, in the assay with C. elegans [1] (setting [10]), the Effect on locomotion entry is “Nematodes moved normally” and the “Pumping rate (min-1) mean ± s.d.” value amounted to 0 ± 0 min⁻¹.

On to `NCCc1c[nH]c2ccc(O)cc12` [serotonin, 5-Hydroxytryptamine], for which the “Mean weight of larva (mg) at 7 days” value in the assay with Helicoverpa armigera (setting [5]) worked out at 85 mg. In the assay with Helicoverpa armigera (setting [6]), the “Mean weight of larva (mg) at 7 days” value is listed as 85 mg. Also, in the assay with Helicoverpa armigera, the activity at 100 µM stood at 116% and the activity at 1000 µM stood at 116%. Also, in the assay on C. elegans [1] (setting [11]), the Effect on locomotion entry is reported as “Nematodes moved normally” and the “Pumping rate (min-1) mean ± s.d.” value is 129 ± 6 min⁻¹. Also, in the assay with C. elegans [1] (setting [10]), the Effect on locomotion result was “Nematodes moved normally” and the “Pumping rate (min-1) mean ± s.d.” value worked out at 54 ± 45 min⁻¹. In addition, in the assay on C. elegans [3] (Caenorhabditis elegans, read-out: EC50 of 5-HT on pharyngeal pumping), the EC50 was roughly 325 µM.

The values are drawn from patent US20030186370A1, “5ht3 receptors of nematodes, polynucleotide molecules encoding same, and antagonists thereof” (priority 2000, published 2003).
